Test results published in ChEMBL document CHEMBL1201861, “Genomics of Drug Sensitity in Cancer screening data, Wellcome Trust Sanger Institute”.
“And” between values parts separate entries of the source, which are not always exact repeats. Equal entries are not always repeated.

How the values were obtained:
Test in all cases: cells
NB7 = type: functional, cell-based; conditions: Homo sapiens;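 further: growth inhibition of NB7 cells, read out with a cell viability assay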
Description: SANGER: Inhibition of human NB7 cell growth in a cell viability assay.

TE-12 = type: functional, cell-based; conditions: Homo sapiens;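 further: growth inhibition of TE-12 cells, read out by a cell viability assay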
Description: SANGER: Inhibition of human TE-12 cell growth in a cell viability assay.

T84 = type: functional, cell-based, Homo sapiens; conditions: t84;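 further: growth inhibition measured with a cell viability readout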
Description: SANGER: Inhibition of human T84 cell growth in a cell viability assay.

ES8 = type: functional, cell-based, Homo sapiens;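 further: growth inhibition of human ES8 cells, read out with a cell viability assay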
Description: SANGER: Inhibition of human ES8 cell growth in a cell viability assay.

NY = type: functional, cell-based, Homo sapiens
Description: SANGER: Inhibition of human NY cell growth in a cell viability assay.

697 = type: functional, cell-based; conditions: Homo sapiens
Description: SANGER: Inhibition of human 697 cell growth in a cell viability assay.

PSN1 = type: functional, cell-based, Homo sapiens;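 further: suppression of growth of human PSN1 cells, read out by a cell viability assay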
Description: SANGER: Inhibition of human PSN1 cell growth in a cell viability assay.

U-266 = type: functional, cell-based; conditions: Homo sapiens
Description: SANGER: Inhibition of human U-266 cell growth in a cell viability assay.

HO-1-N-1 = type: functional, cell-based, Homo sapiens; conditions: ho-1-n-1;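 further: growth inhibition of human HO-1-N-1 cells, read out with a cell viability assay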
Description: SANGER: Inhibition of human HO-1-N-1 cell growth in a cell viability assay.

Daoy = type: functional, cell-based, Homo sapiens;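 further: daoy cell growth inhibition, read out as cell viability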
Description: SANGER: Inhibition of human Daoy cell growth in a cell viability assay.

NCI-H2342 = type: functional, cell-based; conditions: Homo sapiens;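 further: growth inhibition of the cancer cell line, determined with a cell viability assay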
Description: SANGER: Inhibition of human NCI-H2342 cell growth in a cell viability assay.

HuCCT-1 = type: functional, cell-based, Homo sapiens, HuCCT1; conditions: hucct1;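 further: growth inhibition of HuCCT-1 cells, read out by a cell viability assay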
Description: SANGER: Inhibition of human HuCCT1 cell growth in a cell viability assay.

MKN-45 = type: functional, cell-based, Homo sapiens;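 further: growth inhibition of human MKN-45 cells, measured with a cell viability assay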
Description: SANGER: Inhibition of human MKN45 cell growth in a cell viability assay.

EFM-19 = type: functional, cell-based, Homo sapiens; conditions: efm-19;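 further: growth inhibition of human EFM-19 cells, measured in a cell viability assay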
Description: SANGER: Inhibition of human EFM-19 cell growth in a cell viability assay.

YAPC = type: functional, cell-based, Homo sapiens; conditions: yapc;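 further: growth inhibition of YAPC cells, measured with a cell viability assay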
Description: SANGER: Inhibition of human YAPC cell growth in a cell viability assay.

LCLC-97TM1 = type: functional, cell-based, Homo sapiens;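 further: cell viability assay measuring growth inhibition of human LCLC-97TM1 cells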
Description: SANGER: Inhibition of human LCLC-97TM1 cell growth in a cell viability assay.

D283 Med = type: functional, cell-based, Homo sapiens
Description: SANGER: Inhibition of human D-283MED cell growth in a cell viability assay.

J-RT3-T3-5 = type: functional, cell-based; conditions: Homo sapiens;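 further: cell viability assay measuring growth inhibition of human J-RT3-T3-5 cells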
Description: SANGER: Inhibition of human J-RT3-T3-5 cell growth in a cell viability assay.

MKN-28 = type: functional, cell-based, Homo sapiens; conditions: mkn-28;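 further: cell viability assay read-out, IC50 reflects suppression of growth of human MKN-28 cells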
Description: SANGER: Inhibition of human MKN28 cell growth in a cell viability assay.

BB30-HNC = type: functional, cell-based, Homo sapiens;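 further: growth inhibition of the cultured cell line, read out by a cell viability assay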
Description: SANGER: Inhibition of human BB30-HNC cell growth in a cell viability assay.

MCF7 = type: functional, cell-based, Homo sapiens; conditions: mcf7;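 further: growth inhibition of human MCF7 cells, read out with a cell viability assay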
Description: SANGER: Inhibition of human MCF7 cell growth in a cell viability assay.

LNCaP-Clone-FGC = type: functional, cell-based, Homo sapiens
EC-GI-10 = type: functional, cell-based, Homo sapiens
Description: SANGER: Inhibition of human EC-GI-10 cell growth in a cell viability assay.

MIA PaCa-2 = type: functional, cell-based, Homo sapiens; conditions: mia paca-2;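 further: growth inhibition of MIA PaCa-2 cells, read out with a cell viability assay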
Description: SANGER: Inhibition of human MIA-PaCa-2 cell growth in a cell viability assay.

NEC8 = type: functional, cell-based, Homo sapiens;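 further: growth inhibition of human NEC8 cells, read out by a cell viability assay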
Description: SANGER: Inhibition of human NEC8 cell growth in a cell viability assay.

MV4-11 = type: functional, cell-based, MV-4-11; conditions: Homo sapiens;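 further: cell viability readout measuring growth inhibition of human MV-4-11 cells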
Description: SANGER: Inhibition of human MV-4-11 cell growth in a cell viability assay.

MEG-01 = type: functional, cell-based; conditions: Homo sapiens;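 further: growth inhibition of MEG-01 cells, read out by a cell viability assay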
Description: SANGER: Inhibition of human MEG-01 cell growth in a cell viability assay.

KM12 = type: functional, cell-based, Homo sapiens;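 further: KM12 cell growth inhibition, read out with a cell viability assay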
Description: SANGER: Inhibition of human KM12 cell growth in a cell viability assay.

DJM-1 = type: functional, cell-based, Homo sapiens;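 further: growth inhibition of human DJM-1 cells, read out by a cell viability assay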
Description: SANGER: Inhibition of human DJM-1 cell growth in a cell viability assay.

NCI-H727 = type: functional, cell-based, Homo sapiens; conditions: nci-h727;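 further: growth inhibition of human NCI-H727 cells, read out with a cell viability assay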
Description: SANGER: Inhibition of human NCI-H727 cell growth in a cell viability assay.

786-0 = type: functional, cell-based, Homo sapiens
Description: SANGER: Inhibition of human 786-0 cell growth in a cell viability assay.

HSC-3 = type: functional, cell-based, Homo sapiens; conditions: hsc-3
Description: SANGER: Inhibition of human HSC-3 cell growth in a cell viability assay.

COLO-800 = type: functional, cell-based, Homo sapiens;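 further: growth inhibition of COLO-800 cells, read out with a cell viability assay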
Description: SANGER: Inhibition of human COLO-800 cell growth in a cell viability assay.

BB49-HNC = type: functional, cell-based, Homo sapiens;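 further: cell viability assay read-out, reported as inhibition of BB49-HNC cell growth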
Description: SANGER: Inhibition of human BB49-HNC cell growth in a cell viability assay.

SW780 = type: functional, cell-based, Homo sapiens; conditions: sw780;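 further: growth inhibition of the cells, read out with a cell viability assay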
Description: SANGER: Inhibition of human SW780 cell growth in a cell viability assay.

KP-4 = type: functional, cell-based, Homo sapiens; conditions: kp-4; read-out: IC50;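 further: human KP-4 cells, with growth inhibition read out through a cell viability assay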
Description: SANGER: Inhibition of human KP-4 cell growth in a cell viability assay.

DK-MG = type: functional, cell-based, Homo sapiens; conditions: dk-mg;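 further: growth inhibition of DK-MG cells, read out with a cell viability assay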
Description: SANGER: Inhibition of human DK-MG cell growth in a cell viability assay.

D-247MG = type: functional, cell-based, Homo sapiens
Description: SANGER: Inhibition of human D-247MG cell growth in a cell viability assay.

KS-1 = type: functional, cell-based, Homo sapiens;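 further: growth inhibition of KS-1 cells, read out with a cell viability assay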
Description: SANGER: Inhibition of human KS-1 cell growth in a cell viability assay.

OE19 = type: functional, cell-based, Homo sapiens; conditions: oe19;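 further: growth inhibition of OE19 cells, measured through a cell viability read-out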
Description: SANGER: Inhibition of human OE19 cell growth in a cell viability assay.

LB373-MEL-D = type: functional, cell-based, Homo sapiens;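 further: growth inhibition of the cell line, read out in a cell viability assay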
Description: SANGER: Inhibition of human LB373-MEL-D cell growth in a cell viability assay.

NCI-H747 = type: functional, cell-based; conditions: Homo sapiens;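 further: growth inhibition of human NCI-H747 cells, read out by a cell viability assay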
EW-18 = type: functional, cell-based; conditions: Homo sapiens;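 further: growth inhibition of EW-18 cells, read out by a cell viability assay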
Description: SANGER: Inhibition of human EW-18 cell growth in a cell viability assay.

BT-20 = type: functional, cell-based, Homo sapiens; conditions: bt-20;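 further: cell viability assay measuring suppression of growth in human BT-20 cells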
Description: SANGER: Inhibition of human BT-20 cell growth in a cell viability assay.

SK-N-DZ = type: functional, cell-based, Homo sapiens;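 further: growth inhibition of the cancer cell line, read out through a viability assay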
Description: SANGER: Inhibition of human SK-N-DZ cell growth in a cell viability assay.

A673 = type: functional, cell-based, Homo sapiens;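 further: growth inhibition of human A673 cells, read out through a cell viability assay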
Description: SANGER: Inhibition of human A673 cell growth in a cell viability assay.

KYSE-520 cell line = type: functional, cell-based, Homo sapiens;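 further: growth inhibition of human KYSE-520 cells, read out with a viability assay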
Description: SANGER: Inhibition of human KYSE-520 cell growth in a cell viability assay.

PANC-03-27 = type: functional, cell-based, Homo sapiens
Description: SANGER: Inhibition of human PANC-03-27 cell growth in a cell viability assay.

SCC-25 = type: functional, cell-based, Homo sapiens; conditions: scc-25;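 further: growth inhibition of SCC-25 cells, measured with a cell viability assay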
Description: SANGER: Inhibition of human SCC-25 cell growth in a cell viability assay.

UMC-11 = type: functional, cell-based, Homo sapiens;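 further: growth inhibition of UMC-11 cells, read out with a cell viability assay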
Description: SANGER: Inhibition of human UMC-11 cell growth in a cell viability assay.

SW982 = type: functional, cell-based; conditions: Homo sapiens;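 further: growth inhibition of SW982 cells, read out with a cell viability assay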
Description: SANGER: Inhibition of human SW982 cell growth in a cell viability assay.

With `Cc1cc([C@@H](C)Nc2ccccc2C(=O)O)c2nc(N3CCOCC3)cc(=O)n2c1` [AZD-6482] the IC50 (NB7) was > 5120 nM, the IC50 (TE-12) was > 5120 nM and the IC50 (T84) was > 5120 nM. For the same molecule, the IC50 (ES8; es8) was > 5120 nM, the IC50 (NY; Homo sapiens, NY) was > 5120 nM and the IC50 (NY; ny) was > 5120 nM. For the same molecule, the IC50 697 was 4600 nM, the IC50 (PSN1; psn1) was > 5120 nM and the IC50 (U-266) was > 5120 nM. The IC50 (HO-1-N-1) was > 5120 nM, the IC50 (Daoy; Homo sapiens, Daoy) was > 5120 nM and the IC50 (Daoy; daoy) was > 5120 nM. The IC50 (NCI-H2342) was 843 nM, the IC50 (HuCCT-1) was > 5120 nM and 1240 nM and the IC50 (MKN-45; Homo sapiens, MKN-45) was > 5120 nM. The IC50 (MKN-45; mkn-45) was > 5120 nM, the IC50 (EFM-19) was > 5120 nM and the IC50 (YAPC) was > 5120 nM. For the same molecule, the IC50 (LCLC-97TM1; Homo sapiens, LCLC-97TM1) was > 5120 nM, the IC50 (LCLC-97TM1; lclc-97tm1) was > 5120 nM and the IC50 (D283 Med; d283 med) was > 5120 nM. For the same molecule, the IC50 (J-RT3-T3-5) was > 5120 nM, the IC50 (MKN-28) was > 5120 nM and the IC50 (BB30-HNC; Homo sapiens, BB30-HNC) was 4890 nM. The IC50 (BB30-HNC; bb30-hnc) was > 5120 nM, the IC50 (MCF7) was > 5120 nM and 3350 nM and the IC50 (LNCaP-Clone-FGC; Homo sapiens, LNCaP-Clone-FGC) was 1520 nM. For the same molecule, the IC50 (LNCaP-Clone-FGC; lncap-clone-fgc) was 2410 nM, the IC50 (EC-GI-10; ec-gi-10) was > 5120 nM and the IC50 (MIA PaCa-2) was > 5120 nM. The IC50 (NEC8; nec8) was > 5120 nM and 3810 nM, the IC50 (MV4-11) was 2660 nM and the IC50 (MEG-01) was > 5120 nM. The IC50 (KM12; Homo sapiens, KM12) was > 5120 nM, the IC50 (KM12; km12) was > 5120 nM and the IC50 (DJM-1; djm-1) was > 5120 nM. The IC50 (NCI-H727) was > 5120 nM, the IC50 (786-0) was 1990 nM and the IC50 (786-0; Homo sapiens) was 1310 nM. The IC50 (HSC-3) was > 5120 nM, the IC50 (COLO-800; colo-800) was > 5120 nM and the IC50 (BB49-HNC; bb49-hnc) was > 5120 nM and 730 nM. For the same molecule, the IC50 (SW780) was > 5120 nM, the IC50 (KP-4) was > 5120 nM and the IC50 (DK-MG) was > 5120 nM. For the same molecule, the IC50 (D-247MG; d-247mg) was > 5120 nM, the IC50 (KS-1; Homo sapiens, KS-1) was > 5120 nM and the IC50 (KS-1; ks-1) was > 5120 nM. For the same molecule, the IC50 (OE19) was > 5120 nM, the IC50 (LB373-MEL-D; lb373-mel-d) was > 5120 nM and the IC50 (NCI-H747) was > 5120 nM. For the same molecule, the IC50 (EW-18) was > 5120 nM, the IC50 (BT-20) was 592 nM and 1790 nM and the IC50 (SK-N-DZ; sk-n-dz) was > 5120 nM and 2320 nM. The IC50 (A673; Homo sapiens, A673) was > 5120 nM, the IC50 (A673; a673) was > 5120 nM and the IC50 (KYSE-520 cell line; Homo sapiens, KYSE-520) was > 5120 nM. The IC50 (KYSE-520 cell line; kyse-520) was > 5120 nM, the IC50 (PANC-03-27; Homo sapiens, PANC-03-27) was > 5120 nM and the IC50 (PANC-03-27; panc-03-27) was 4400 nM. The IC50 (SCC-25) was > 5120 nM and 4740 nM, the IC50 (UMC-11; Homo sapiens, UMC-11) was > 5120 nM and the IC50 (UMC-11; umc-11) was > 5120 nM.
In the case of `CCC(=O)N1CCN(c2ccc(-n3c(=O)ccc4cnc5ccc(-c6cnc7ccccc7c6)cc5c43)cc2C(F)(F)F)CC1` [TORIN1], the IC50 (NB7) is reported as > 1200 nM, the IC50 (TE-12) is reported as 25.5 nM and the IC50 (ES8; Homo sapiens, ES8) is reported as 18.4 nM. The IC50 697 was 6.34 nM, the IC50 (PSN1; Homo sapiens, PSN1) was 14.1 nM and the IC50 (U-266) was 132 nM. For the same molecule, the IC50 (SW982) was 42.5 nM, the IC50 (D283 Med; Homo sapiens, D283 Med) was > 1200 nM and the IC50 (J-RT3-T3-5) was 91.5 nM. For the same molecule, the IC50 (BB30-HNC; Homo sapiens, BB30-HNC) was 57.3 nM, the IC50 (LNCaP-Clone-FGC; Homo sapiens, LNCaP-Clone-FGC) was > 1200 nM and the IC50 (EC-GI-10; Homo sapiens, EC-GI-10) was > 1200 nM. It also gave an IC50 (NEC8; Homo sapiens, NEC8) of 562 nM, an IC50 (MV4-11) of 70 nM and an IC50 (MEG-01) of 186 nM. For the same molecule, the IC50 (KM12; Homo sapiens, KM12) was 76.4 nM, the IC50 (DJM-1; Homo sapiens, DJM-1) was > 1200 nM and the IC50 (COLO-800; Homo sapiens, COLO-800) was > 1200 nM. The IC50 (BB49-HNC; Homo sapiens, BB49-HNC) was 136 nM, the IC50 (D-247MG; Homo sapiens, D-247MG) was > 1200 nM and the IC50 (KS-1; Homo sapiens, KS-1) was 13.9 nM. For the same molecule, the IC50 (LB373-MEL-D; Homo sapiens, LB373-MEL-D) was 155 nM, the IC50 (NCI-H747) was 23.3 nM and the IC50 (EW-18) was > 1200 nM. The IC50 (SK-N-DZ; Homo sapiens, SK-N-DZ) was 147 nM.
In the case of `CN1CCN(CCOc2cc(OC3CCOCC3)c3c(Nc4c(Cl)ccc5c4OCO5)ncnc3c2)CC1` [SARACATINIB], the IC50 (NB7) is reported as > 2000 nM, the IC50 (TE-12) is reported as 327 nM and the IC50 (ES8; Homo sapiens, ES8) is reported as > 2000 nM. The IC50 697 was > 2000 nM, the IC50 (PSN1; Homo sapiens, PSN1) was > 2000 nM and the IC50 (U-266) was > 2000 nM. The IC50 (SW982) was 1920 nM, the IC50 (D283 Med; Homo sapiens, D283 Med) was > 2000 nM and the IC50 (J-RT3-T3-5) was > 2000 nM. The IC50 (BB30-HNC; Homo sapiens, BB30-HNC) was 862 nM, the IC50 (LNCaP-Clone-FGC; Homo sapiens, LNCaP-Clone-FGC) was > 2000 nM and the IC50 (EC-GI-10; Homo sapiens, EC-GI-10) was > 2000 nM. The IC50 (NEC8; Homo sapiens, NEC8) was > 2000 nM, the IC50 (MV4-11) was > 2000 nM and the IC50 (MEG-01) was 237 nM. The IC50 (KM12; Homo sapiens, KM12) was > 2000 nM, the IC50 (DJM-1; Homo sapiens, DJM-1) was > 2000 nM and the IC50 (COLO-800; Homo sapiens, COLO-800) was > 2000 nM. For the same molecule, the IC50 (BB49-HNC; Homo sapiens, BB49-HNC) was > 2000 nM, the IC50 (D-247MG; Homo sapiens, D-247MG) was > 2000 nM and the IC50 (KS-1; Homo sapiens, KS-1) was 1200 nM. The IC50 (LB373-MEL-D; Homo sapiens, LB373-MEL-D) was > 2000 nM, the IC50 (NCI-H747) was > 2000 nM and the IC50 (EW-18) was > 2000 nM. The IC50 (SK-N-DZ; Homo sapiens, SK-N-DZ) was 1850 nM.
